Structures are written as SMILES.

The target of one assay is T1, CYP11B1 (Homo sapiens, UniProt P15538).
T1 construct: the NCI-H295R cells have Cyp11 B1 (steroid 11 β-hydroxylase); host or cells: NCI-H295R
T1 sequence (P15538 25-503): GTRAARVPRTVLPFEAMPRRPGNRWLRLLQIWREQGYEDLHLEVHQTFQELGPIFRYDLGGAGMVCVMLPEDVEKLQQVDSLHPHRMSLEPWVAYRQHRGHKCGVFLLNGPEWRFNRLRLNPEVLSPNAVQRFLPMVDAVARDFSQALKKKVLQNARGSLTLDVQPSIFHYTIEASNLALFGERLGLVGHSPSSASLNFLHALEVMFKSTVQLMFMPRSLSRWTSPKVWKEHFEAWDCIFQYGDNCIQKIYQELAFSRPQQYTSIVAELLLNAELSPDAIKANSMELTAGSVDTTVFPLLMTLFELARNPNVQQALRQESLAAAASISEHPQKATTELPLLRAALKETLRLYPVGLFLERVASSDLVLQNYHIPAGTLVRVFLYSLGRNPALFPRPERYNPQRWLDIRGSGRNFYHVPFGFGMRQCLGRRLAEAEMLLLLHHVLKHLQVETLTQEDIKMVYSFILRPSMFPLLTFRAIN
Nature of the assay: Cortisol cell secretion in NCI-H295R cells (CYP11B1 activity). The assay is classed as cell-based. Conditions: compound at 1 μM; for inhibition at 1 µM: NCI-H295R, read-out: Cortisol cell secretion (% Inhib. @ 1 μM). From the text: The in vitro inhibitory activities for CYP1B1 can be determined by the following assay.
The cell line NCI-H295R was originally isolated from an adrenocortical carcinoma and has been characterized in the literature through the stimulable secretion of steroid hormones and the presence of the enzymes essential for steroidogenesis. Thus, the NCI-H295R cells have Cyp11 B1 (steroid 11 β-hydroxylase). The cells show the physiological property of zonally undifferentiated human foetal adrenocortical cells which, however, have the capacity to produce the steroid hormones which are formed in the three, phenotypically distinguishable zones in the adult adrenal cortex.
The NCI-H295R cells (American Type Culture Collection, ATCC, Rockville, Md., USA) are grown in Dulbeoco's Modified Eagle'Ham F-12 Medium (DME/F12), which has been supplemented with Ulroser SF Serum (Soprachem, Geigy-Saint-Christophe, France), insulin, transferrin, selenite (I-T-S, Becton Dickinson Biosiences, Franklin lakes. NJ, USA) and antibiotics in 75 cm^2 cell culture vessels at 37° C. and in a 95% air-5% carbon dioxide atmosphere. The cells are subsequently transferred for colony formation into a 24-well incubation vessel. They are cultivated there in DME/F12 medium, which is now supplemented with 0.1% bovine serum instead of Ultroser SF for 24 hours. The experiment is initiated by cultivating the cells in DME/F12 medium which is supplemented with 0.1% bovine serum albumin and test compound, in the presence or absence of cell stimulants, for 72 hours. The test substance is added in a concentration range from 0.2 nanomolar to […]. Cell stimulants which can be used are angiotensin II (1 D or 100 nanomolar), potassium ions (16 millimolar), forskolin (10 micromolar) or a combination of two stimulants.
The excretion of aldosterone, cortisol, corticosterone and estradiol/estrone into the culture medium can be detected and quantified by commercially available, specific monoclonal antibodies in radioimmunoassays in accordance with the manufacturer's instructions.
(§1) Inhibition of the release of certain steroids can be used as a measure of the respective enzyme inhibition by the added test compounds. The dose-dependent inhibition of enzymic activity by a compound is calculated by means of an inhibition plot which is characterized by an IC50.
The inhibition activity of cortisol production (CYP11B1 activity) can also be expressed in percentage inhibition (% inhibition) at a given concentration (e.g. % inhibition at 1 μM), which is the cortisol level when cell is treated with the given concentration of a compound of the invention (e.g. concentration of 1 μM) versus the cortisol excretion when cell is free of the compound of the invention. % inhibition cortisol production=[(Y′−X′)/Y′]×100 wherein X′ is the level of cortisol when the cell is treated with a compound of Formula I; and Y′ is the level of cortisol when the cell is free of compound of Formula I.

The next assay deals with T2, aldosterone synthase (Homo sapiens, UniProt P19099).
T2 construct: host or cells: NCI-H295R
T2 sequence (P19099 25-503): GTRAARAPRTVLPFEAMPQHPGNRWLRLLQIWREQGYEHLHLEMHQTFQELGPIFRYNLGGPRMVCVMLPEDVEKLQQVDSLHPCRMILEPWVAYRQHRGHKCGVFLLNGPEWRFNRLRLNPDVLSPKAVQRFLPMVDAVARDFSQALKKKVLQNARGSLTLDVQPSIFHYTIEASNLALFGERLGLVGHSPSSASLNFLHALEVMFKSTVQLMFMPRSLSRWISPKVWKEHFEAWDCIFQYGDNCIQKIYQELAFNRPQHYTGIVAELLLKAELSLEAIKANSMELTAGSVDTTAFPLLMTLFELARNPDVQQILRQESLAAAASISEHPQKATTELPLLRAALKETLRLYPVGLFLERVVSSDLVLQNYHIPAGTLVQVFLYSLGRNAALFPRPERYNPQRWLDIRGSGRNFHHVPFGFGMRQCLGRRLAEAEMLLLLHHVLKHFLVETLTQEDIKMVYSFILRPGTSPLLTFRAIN
Kind of assay: Aldosterone cell secretion in NCI-H295R cells (aldosterone synthase inhibition, SPA). Type of assay: cell-based. Conditions: human adrenocortical carcinoma NCI-H295R cells, 1 μM Ang II, 24 hr.
Excerpt: In particular, the aldosterone synthase inhibitory activities in vitro can be determined by the following assay.
Human adrenocortical carcinoma NCI-H295R cell line was obtained from American Type Culture Collection (Manassas, Va.). Insulin/transferrin/selenium (ITS)-A supplement (100×). DMEM/F-12, antibiotic/antimycotic (100×), and fetal bovine serum (FBS) were purchased from Invitrogen (Carlsbad, Calif.). Anti-mouse PVT scintillation proximity assay (SPA) beads and NBS 96-well plates were obtained from GE Health Sciences (Piscataway, N.J.) and Corning (Acton, Mass.), respectively. Solid black 96-well flat bottom plates were purchased from Costar (Corning, N.Y.). Aldosterone and angiotensin (Ang II) were purchased from Sigma (St. Louis, Mo.). D-[1,2,6,7-^3H(N)]aldosterone was acquired from PerkinElmer (Boston, Mass.). Nu-serum was a product of BD Biosciences (Franklin Lakes, N.J.). The NADPH regenerating system, dibenzylfluorescein (DBF), and human aromatase Supersomes® were obtained from Gentest (Woburn, Mass.).
For in vitro measurement of aldosterone activity, human adrenocortical carcinoma NCI-H295R cells are seeded in NBS 96-well plates at a density of 25,000 cells/well in 100 μl of a growth medium containing DMEM/F12 supplemented with 10% FCS, 2.5% Nu-serum, 1 μg ITS/ml, and 1× antibiotic/antimycotic. The medium is changed after culturing for 3 days at 37° C. under an atmosphere of 5% CO2/95% air. On the following day, cells are rinsed with 100 μl of phosphate-buffered saline (PBS) and incubated with 100 μl of treatment medium containing 1 μM Ang II and a compound at different concentrations in quadruplicate wells at 37° C. for 24 hr. At the end of incubation, 50 μl of medium is withdrawn from each well for measurement of aldosterone production by an SPA using mouse anti-aldosterone monoclonal antibodies.
Measurement of aldosterone activity can also be performed using a 96-well plate format. Each test sample is incubated with 0.02 μCi of D-[1,2,6,7-^3H(N)]aldosterone and 0.3 μg of anti-aldosterone antibody in PBS containing 0.1% Triton X-100, 0.1% bovine serum albumin, and 12% glycerol in a total volume of 200 μl at room temperature for 1 hr. Anti-mouse PVT SPA beads (50 μl) are then added to each well and incubated overnight at room temperature prior to counting in a Microbeta plate counter. The amount of aldosterone in each sample is calculated by comparing with a standard curve generated using known quantities of the hormone.
as §1
The IC50 values for active test compounds are ascertained by a simple linear regression analysis in order to construct inhibition plots without data weighting. The inhibition plot is calculated by fitting a 4-parameter logistic function to the raw data points using the least squares method. The equation of the 4-parameter logistic function is calculated as follows: Y=(d−a)/((1+(x/c)b))+a, where: a=minimum data level, b=gradient, I […], d=maximum data level, x=inhibitor concentration.
The inhibition activity of aldosterone production can also be expressed in percentage inhibition (% inhibition) at a given concentration (e.g. % inhibition at 1 μM), which is the aldosterone level when the cell is treated with the given concentration of a compound of this invention (e.g. concentration of 1 μM) versus the aldosterone excretion when cell is free of the compound of the invention: % inhibition aldosterone production=[(Y−X)/Y]×100 wherein X is the level of aldosterone when the cell is treated with a compound of Formula I; and Y is the level of aldosterone when the cell is free of compound of Formula I.

As to `CCN(Cc1ccccc1)Cc1cncc(-c2ccc3oc(=O)n(C)c3c2)c1` [Example 10, 5-{5-[(Benzyl-ethyl-amino)-methyl]-pyridin-3-yl}-3-methyl-3H-benzooxazol-2-one], the inhibition at 1 µM on CYP11B1 was determined as 96%. Also, the IC50 against aldosterone synthase turned out to be 17 nM.
On the same counts, the results for `COc1cncc(-c2ccc3oc(=O)n(C)c3c2)c1` [Example 4, 5-(5-methoxypyridin-3-yl)-3-methylbenzo[d]oxazol-2(3H)-one] are 77% and 18 nM.
On the same counts, the results for `Cn1c(=O)oc2ccc(-c3cncc(F)c3CO)cc21` [Example 36, 5-(5-fluoro-4-(hydroxymethyl)pyridin-3-yl)-3-methylbenzo[d]oxazol-2(3H)-one] are 13% and 144 nM.
As to `Cn1c(=O)oc2ccc(-c3cnccc3C(O)c3ccc(F)cc3)cc21` (single isomer, unassigned) [Example 8 Enantiomer 1, 5-(4-((4-fluorophenyl)(hydroxy)methyl)pyridin-3-yl)-3-methylbenzo[d]oxazol-2(3H)-one], the inhibition at 1 µM at CYP11B1 is 77%. This compound showed an IC50 against aldosterone synthase of 53 nM.
On the same counts, the results for `Cn1c(=O)oc2ccc(-c3cccnc3)cc21` [Example 1, 3-Methyl-5-pyridin-3-yl-3H-benzooxazol-2-one] are 58% and 17.8 nM.
The matching figures for `CN(c1cncc(-c2ccc3oc(=O)n(C)c3c2)c1)S(=O)(=O)C1CC1` [Example 21, N-methyl-N-(5-(3-methyl-2-oxo-2,3-dihydrobenzo[d]oxazol-5-yl)pyridin-3-yl)cyclopropanesulfonamide]: 65.5% and 68 nM.
On the same counts, the results for `Cn1c(=O)oc2cc(F)c(-c3cncc(CO)c3)cc21` [Example 11] are 39% and 128 nM.
For the compound `Cn1c(=O)oc2ccc(-c3cnccc3C(O)c3ccc(F)cc3)cc21` (single isomer, unassigned) [Example 8 Enantiomer 2, 5-(4-((4-fluorophenyl)(hydroxy)methyl)pyridin-3-yl)-3-methylbenzo[d]oxazol-2(3H)-one], the “Cortisol cell secretion (% Inhib. @ 1 μM)” value at CYP11B1 (1 µM) was 73%. In addition, the IC50 on aldosterone synthase came to 66 nM.
As to `Cn1c(=O)oc2ccc(-c3cncc(C(O)C(F)(F)F)c3)cc21` (stereo not shown) [Example 19, 3-methyl-5-(5-(2,2,2-trifluoro-1-hydroxyethyl)pyridin-3-yl)benzo[d]oxazol-2(3H)-one], the inhibition at 1 µM on CYP11B1 worked out at 95%. This compound came in with an IC50 against aldosterone synthase of 1.4 nM.
For the compound `Cn1c(=O)oc2ccc(-c3cncc(C(N)C(F)(F)F)c3)cc21` (single isomer, unassigned) [Example 29 Enantiomer 2, 5-(5-(1-amino-2,2,2-trifluoroethyl)pyridin-3-yl)-3-methylbenzo[d]oxazol-2(3H)-one], on CYP11B1, the “Cortisol cell secretion (% Inhib. @ 1 μM)” value turned out to be 57%. In addition, at aldosterone synthase, half-maximal inhibition (IC50) was put at 34 nM.
Turning to `Cn1c(=O)oc2ccc(-c3cncc(C(O)C4CC4)c3)cc21` (single isomer, unassigned) [Example 13 Enantiomer 1, 5-(5-(cyclopropyl(hydroxy)methyl)pyridin-3-yl)-3-methylbenzo[d]oxazol-2(3H)-one], the inhibition at 1 µM on CYP11B1 came to 64%. This compound gave an IC50 against aldosterone synthase of 28 nM.
The matching figures for `Cn1c(=O)oc2ccc(-c3cncc(C(C)(C)O)c3)cc21` [Example 14, 5-(5-(2-hydroxypropan-2-yl)pyridin-3-yl)-3-methylbenzo[d]oxazol-2(3H)-one]: 89% and 3 nM.
The matching figures for `CCCS(=O)(=O)Nc1cncc(-c2ccc3oc(=O)n(C)c3c2)c1` [Example 28, N-(5-(3-methyl-2-oxo-2,3-dihydrobenzo[d]oxazol-5-yl)pyridin-3-yl)propane-1-sulfonamide]: 30% and 154 nM.
The compound `CC(O)c1ccncc1-c1ccc2oc(=O)n(C)c2c1` (single isomer, unassigned) [Example 7 Enantiomer 2, 5-(4-(1-hydroxyethyl)pyridin-3-yl)-3-methylbenzo[d]oxazol-2(3H)-one] showed an IC50 at aldosterone synthase of 452 nM.
Still for that read-out and setting: the same measure for `CC(O)c1ccncc1-c1ccc2oc(=O)n(C)c2c1` (single isomer, unassigned) [Example 7 Enantiomer 1, 5-(4-(1-hydroxyethyl)pyridin-3-yl)-3-methylbenzo[d]oxazol-2(3H)-one]: 437 nM.

The term IC50 denotes the concentration at which inhibition is half-maximal. Read a high IC50 as a need for much substance.

Values taken from patent US8455522B2, “Benzoxazolone derivatives as aldosterone synthase inhibitors” (Novartis AG, priority 2009, dated 2013).
